These results are taken from paper PMC6429262, “Design and Synthesis of Novel Anti-Proliferative Emodin Derivatives and Studies on their Cell Cycle Arrest, Apoptosis Pathway and Migration” (Molecules, 2019).

The IC50 is the concentration that inhibits the measured activity by half.

The test system of one experiment is L02 cells. The experiment is described as follows: Cytotoxic activity against human normal liver cells (L02). It is filed as cell-based. As to conditions: Homo sapiens, L02, human normal liver L02 cells.
In another experiment the test system is MCF-7 cells. The experiment is described as follows: CellTiter-Glo Luminescent Cell Viability Assay, MCF-7. It is filed as cell-based, human. The procedure:
(§1) The in vitro anti-proliferative activities of all the novel synthesized compounds were evaluated against HepG2 cells and MCF-7 cells by CellTiter-Glo® Luminescent Cell Viability Assay, using paclitaxel (a clinically used drug) as a positive control. Emodin (1) and compound 2 were also included for comparison.
(§2) HepG2 cells and MCF-7 cells were purchased from American Type Culture Collection (ATCC, Manassas, VA, USA). Cells were cultured in T75 flask (430641, Corning, New York, NY, USA), supplemented with high-glucose DMEM medium (Dulbecco’s modified Eagle’s medium, 11965-092, Gibco, New York, NY, USA) containing 10% Fetal bovine serum (FBS) and 1% penicillin (100 units/mL)-streptomycin (100 µg/mL) in a humidified incubator at 37 °C under 5% CO2 and 95% relative humidity (RH) atmosphere. The cells were harvested for metabolomics experiments using cell scrapers.
(§3) HepG2 cells and MCF-7 cells in 40 µL DMEM supplemented with 10% FBS were seeded at a density of 500 cells/well in 384-well cell culture plate (3570, Corning), respectively. After 24 h, the medium was substituted with fresh medium containing various sample solutions in DMSO (0.5%, v/v) at a dose range of 0.14–100 µM with 3-fold serial dilutions, and cells were cultured for another 48 h. Cells were cultured in medium without samples but 0.5% DMSO served as a control. All measurements were determined in triplicate for each treatment. After the sample treatment for 48 h, 20 µL CellTiter-Glo (G7573, Promega, Fitchburg, WI, USA) was added to each well containing cells and the contents were mixed for 2 min on an orbital shaker to induce cell lysis. The plates were then incubated at room temperature for 20 min to stabilize the luminescent signal. The luminescence was recorded on an Envision 2014 (Perkin Elmer, Waltham, MA, UAS). The IC50 values represented the samples’ concentrations required to inhibit 50% of cell proliferation and were calculated from a calibration curve by linear regression using GraphPad Prism 7.0 software (GraphPad Software, San Diego, CA, USA).
In general terms: In ATP-based viability assays light output follows the ATP content of the culture.

The subject of a further experiment is HepG2 cells. The experiment is described as follows: CellTiter-Glo Luminescent Cell Viability Assay, HepG2. It is filed as cell-based, human. As for the experimental part: as §1, §2, §3

`Cc1cc(O)c2c(c1)C(=O)c1cc(O)cc(O)c1C2=O` [Emodin, 3-methyl-1,6,8-trihydroxyanthraquinone]: the IC50 turned out to be 22.52 ± 0.18 µM with L02 cells; 52.7 ± 2.22 µM with MCF-7 cells (Homo sapiens, MCF7, 48 h, MCF-7 cells, 48 h, mean of three independent experiments); 43.9 ± 1.28 µM in the experiment on HepG2 cells (Homo sapiens, HepG2, 48 h, HepG2 cells, 48 h, mean of three independent experiments). In the experiment on MCF-7 cells (IC50 on normal cells (L02)/IC50 on cancer cells (MCF-7)), the “Selectivity Index MCF-7” value is given as 0.43. Further, the “Selectivity Index HepG2” value with HepG2 cells (IC50 on normal cells (L02)/IC50 on cancer cells (HepG2)) turned out to be 0.51.
